Measured values published in patent publication US10538555B2, “Macrocyclic inhibitors of the PD-1/PD-L1 and CD80(B7-1)/PD-L1 protein/protein interactions” (BRISTOL-MYERS SQUIBB COMPANY, priority 2014, dated 2020).
*1 amine or outer side, *2 acyl side, *3 side chain or, on linkers, in order; H or OH if unused. Where a SMILES comes first, the peptide text is derived from it. Bridges are numbered along the chain shown (N, C = ends). [ ]: non-standard residue; d: D form. Trp(1-CH2COOH) = N[C@@H](Cc1cn(CC(=O)O)c2ccccc12)C(=O)O; X8 = O=C([C@H](CC1CNc2ccccc21)N[*:1])[*:2]; Bta = N[C@@H](Cc1csc2ccccc12)C(=O)O; Hyp = O=C(O)[C@@H]1C[C@@H](O)CN1; NMeNle = CCCC[C@H](NC)C(=O)O; NMeA = CN[C@@H](C)C(=O)O; Dab = NCC[C@H](N)C(=O)O; Dap = NC[C@H](N)C(=O)O

Target: T1, Human PD-L1/PD-1 (Homo sapiens, UniProt Q9NZQ7)
T1 construct: TVMV protease cleavage site (C); made in house; host or cells: HEK293T cells
Assay: HTRF Human PD-L1/PD-1 binding assay (PD-1-Ig/PD-L1-His)
Settings: PD-L1-His 10 nM, PD-1-Ig 20 nM; class symbol; read-out: HTRF Human PD-L1/PD-1 Binding Assay IC50 Range
In short: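 HTRF read-out (665/620 nm ratio) after 30 min equilibration with Eu-cryptate anti-Ig mAb (1 nM) and APC anti-His mAb (20 nM). Peptides preincubated 15 min with PD-L1-His (10 nM), then PD-1-Ig (20 nM) added for 15 min.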

T1 sequence (Q9NZQ7 with tags, fused parts or gaps): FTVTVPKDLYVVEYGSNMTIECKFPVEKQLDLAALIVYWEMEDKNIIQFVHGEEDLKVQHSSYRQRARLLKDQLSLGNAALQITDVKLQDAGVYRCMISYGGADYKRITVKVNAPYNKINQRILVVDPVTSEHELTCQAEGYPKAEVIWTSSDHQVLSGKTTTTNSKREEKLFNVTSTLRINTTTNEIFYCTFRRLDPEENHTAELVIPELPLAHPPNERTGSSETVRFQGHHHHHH

Q: `CCCC[C@H]1C(=O)N(C)[C@@H](CCCC)C(=O)N[C@@H](C)C(=O)N[C@H](C(=O)NCC(N)=O)CSCC(=O)N[C@@H](Cc2ccc(O)cc2)C(=O)N(C)[C@@H](C)C(=O)N[C@@H](CC(N)=O)C(=O)N2CCC[C@H]2C(=O)N[C@@H](CN)C(=O)N[C@@H](CCC(=O)O)C(=O)N2C[C@H](O)C[C@H]2C(=O)N[C@@H](Cc2c[nH]c3ccccc23)C(=O)N[C@@H](CCN)C(=O)N[C@@H](Cc2cn(CC(=O)O)c3ccccc23)C(=O)N1C` [Example 5168] ({CH2CO}-Y[NMeA]NP[Dap]E[Hyp]W[Dab][Trp(1-CH2COOH)][NMeNle][NMeNle]ACG-NH2; thioether N-14) was tested. Which IC50 did it give?
A: 1 to 9.9 nM

Q: For `CCCC[C@H]1C(=O)N(C)[C@@H](CCCC)C(=O)N[C@@H](CC(C)C)C(=O)N[C@H](C(=O)NCC(N)=O)CSCC(=O)N[C@@H](Cc2ccc(O)cc2)C(=O)N(C)[C@@H](C)C(=O)N[C@@H](CC(N)=O)C(=O)N2CCC[C@H]2C(=O)N[C@@H](Cc2c[nH]cn2)C(=O)N[C@@H](CCC(=O)O)C(=O)N2C[C@H](O)C[C@H]2C(=O)N[C@@H](Cc2c[nH]c3ccccc23)C(=O)N[C@H](C)C(=O)N[C@@H](Cc2csc3ccccc23)C(=O)N1C` [Example 5169] ({CH2CO}-Y[NMeA]NPHE[Hyp]W[dA][Bta][NMeNle][NMeNle]LCG-NH2; thioether N-14), which IC50 is on record?
A: 1 to 9.9 nM

Q: With `CCCC[C@H]1C(=O)N(C)[C@@H](CCCC)C(=O)N[C@@H](CCC(=O)O)C(=O)N[C@H](C(=O)NCC(N)=O)CSCC(=O)N[C@@H](Cc2ccc(O)cc2)C(=O)N(C)[C@@H](C)C(=O)N[C@@H](CC(=O)O)C(=O)N2CCC[C@H]2C(=O)N[C@@H](CN)C(=O)N[C@@H](CCC(=O)O)C(=O)N2C[C@H](O)C[C@H]2C(=O)N[C@@H](Cc2c[nH]c3ccccc23)C(=O)N[C@@H](CO)C(=O)N[C@@H](Cc2c[nH]c3ccccc23)C(=O)N1C` [Example 5170] ({CH2CO}-Y[NMeA]DP[Dap]E[Hyp]WSW[NMeNle][NMeNle]ECG-NH2; thioether N-14) as the compound, how does the IC50 read?
A: 1 to 9.9 nM

Q: How did the IC50 turn out when `CCCC[C@H]1C(=O)N(C)[C@@H](CCCC)C(=O)N[C@@H](CC(C)C)C(=O)N[C@H](C(=O)NCC(N)=O)CSCC(=O)N[C@@H](Cc2ccc(O)cc2)C(=O)N(C)[C@@H](C)C(=O)N[C@@H](CC(=O)O)C(=O)N2CCC[C@H]2C(=O)N[C@@H](CN)C(=O)N[C@@H](CC(C)C)C(=O)N2C[C@H](O)C[C@H]2C(=O)N[C@@H](Cc2c[nH]c3ccccc23)C(=O)N[C@@H](CCN)C(=O)N[C@@H](Cc2cn(CC(=O)O)c3ccccc23)C(=O)N1C` [Example 5171] ({CH2CO}-Y[NMeA]DP[Dap]L[Hyp]W[Dab][Trp(1-CH2COOH)][NMeNle][NMeNle]LCG-NH2; thioether N-14) was run?
A: 1 to 9.9 nM

Q: With `CCCC[C@H]1C(=O)N(C)[C@@H](CCCC)C(=O)NCC(=O)N[C@H](C(=O)NCC(N)=O)CSCC(=O)N[C@@H](Cc2ccc(O)cc2)C(=O)N(C)[C@@H](C)C(=O)N[C@@H](CC(N)=O)C(=O)N2CCC[C@H]2C(=O)NCC(=O)N[C@@H](CCC(N)=O)C(=O)N2C[C@H](O)C[C@H]2C(=O)N[C@@H](Cc2c[nH]c3ccccc23)C(=O)N[C@@H](CO)C(=O)N[C@@H](Cc2c[nH]c3ccccc23)C(=O)N1C` [Example 5175] ({CH2CO}-Y[NMeA]NPGQ[Hyp]WSW[NMeNle][NMeNle]GCG-NH2; thioether N-14) as the compound, how does the IC50 read?
A: 1 to 9.9 nM

Q: For `CCCC[C@H]1C(=O)N(C)[C@@H](CCCC)C(=O)N[C@@H](CN)C(=O)N[C@H](C(=O)NCC(N)=O)CSCC(=O)N[C@@H](Cc2ccc(O)cc2)C(=O)N(C)[C@@H](C)C(=O)N[C@@H](CC(=O)O)C(=O)N2CCC[C@H]2C(=O)N[C@@H](CN)C(=O)N[C@@H](CCC(=O)O)C(=O)N2C[C@H](O)C[C@H]2C(=O)N[C@@H](Cc2c[nH]c3ccccc23)C(=O)N[C@@H](CCN)C(=O)N[C@@H](Cc2cn(CC(=O)O)c3ccccc23)C(=O)N1C` [Example 5176] ({CH2CO}-Y[NMeA]DP[Dap]E[Hyp]W[Dab][Trp(1-CH2COOH)][NMeNle][NMeNle][Dap]CG-NH2; thioether N-14), which IC50 is on record?
A: 1 to 9.9 nM

Q: For `CCCC[C@H]1C(=O)N(C)[C@@H](CCCC)C(=O)N[C@@H](CCC(=O)O)C(=O)N[C@H](C(=O)NCC(N)=O)CSCC(=O)N[C@@H](Cc2ccc(O)cc2)C(=O)N(C)[C@@H](C)C(=O)N[C@@H](CC(=O)O)C(=O)N2CCC[C@H]2C(=O)N[C@@H](CO)C(=O)N[C@@H](CCC(N)=O)C(=O)N2C[C@H](O)C[C@H]2C(=O)N[C@@H](Cc2c[nH]c3ccccc23)C(=O)N[C@@H](CCC(=O)O)C(=O)N[C@@H](Cc2c[nH]c3ccccc23)C(=O)N1C` [Example 5177] ({CH2CO}-Y[NMeA]DPSQ[Hyp]WEW[NMeNle][NMeNle]ECG-NH2; thioether N-14), which IC50 is on record?
A: 10 to 99.9 nM

Q: For `CCCC[C@H]1C(=O)N(C)[C@@H](CCCC)C(=O)N[C@@H](CCCNC(=N)N)C(=O)N[C@H](C(=O)NCC(N)=O)CSCC(=O)N[C@@H](Cc2ccc(O)cc2)C(=O)N(C)[C@@H](C)C(=O)N[C@@H](CO)C(=O)N2CCC[C@H]2C(=O)N[C@@H](Cc2cnc[nH]2)C(=O)N[C@@H](CCC(N)=O)C(=O)N2C[C@H](O)C[C@H]2C(=O)N[C@@H](Cc2c[nH]c3ccccc23)C(=O)N[C@@H](CO)C(=O)N[C@@H](Cc2c[nH]c3ccccc23)C(=O)N1C` [Example 5178] ({CH2CO}-Y[NMeA]SPHQ[Hyp]WSW[NMeNle][NMeNle]RCG-NH2; thioether N-14), which IC50 is on record?
A: 1 to 9.9 nM

Q: How did the IC50 turn out when `CCCC[C@H]1C(=O)N(C)[C@@H](CCCC)C(=O)N[C@@H](CCC(=O)O)C(=O)N[C@H](C(=O)NCC(N)=O)CSCC(=O)N[C@@H](Cc2ccc(O)cc2)C(=O)N(C)[C@@H](C)C(=O)N[C@@H](CC(=O)O)C(=O)N2CCC[C@H]2C(=O)N[C@@H](CO)C(=O)N[C@@H](CC(C)C)C(=O)N2C[C@H](O)C[C@H]2C(=O)N[C@@H](Cc2c[nH]c3ccccc23)C(=O)N[C@@H](CCN)C(=O)N[C@@H](Cc2c[nH]c3ccccc23)C(=O)N1C` [Example 5179] ({CH2CO}-Y[NMeA]DPSL[Hyp]W[Dab]W[NMeNle][NMeNle]ECG-NH2; thioether N-14) was run?
A: 1 to 9.9 nM

Q: For `CCCC[C@H]1C(=O)N(C)[C@@H](CCCC)C(=O)N[C@@H](CC(C)C)C(=O)N[C@H](C(=O)NCC(N)=O)CSCC(=O)N[C@@H](Cc2ccc(O)cc2)C(=O)N(C)[C@@H](C)C(=O)N[C@@H](CC(=O)O)C(=O)N2CCC[C@H]2C(=O)N[C@@H](CN)C(=O)N[C@@H](CCC(=O)O)C(=O)N2C[C@H](O)C[C@H]2C(=O)N[C@@H](Cc2c[nH]c3ccccc23)C(=O)N[C@@H](CCN)C(=O)N[C@@H](Cc2cn(CC(=O)O)c3ccccc23)C(=O)N1C` [Example 5180] ({CH2CO}-Y[NMeA]DP[Dap]E[Hyp]W[Dab][Trp(1-CH2COOH)][NMeNle][NMeNle]LCG-NH2; thioether N-14), which IC50 is on record?
A: 1 to 9.9 nM

Q: With `CCCC[C@H]1C(=O)N(C)[C@@H](CCCC)C(=O)N[C@@H](CC(=O)O)C(=O)N[C@H](C(=O)NCC(N)=O)CSCC(=O)N[C@@H](Cc2ccc(O)cc2)C(=O)N(C)[C@@H](C)C(=O)N[C@@H](CC(N)=O)C(=O)N2CCC[C@H]2C(=O)N[C@@H](Cc2c[nH]cn2)C(=O)N[C@@H](CCC(=O)O)C(=O)N2C[C@H](O)C[C@H]2C(=O)N[C@@H](Cc2c[nH]c3ccccc23)C(=O)N[C@@H](CCN)C(=O)N[C@@H](Cc2cn(CC(=O)O)c3ccccc23)C(=O)N1C` [Example 5181] ({CH2CO}-Y[NMeA]NPHE[Hyp]W[Dab][Trp(1-CH2COOH)][NMeNle][NMeNle]DCG-NH2; thioether N-14) as the compound, how does the IC50 read?
A: 10 to 99.9 nM

Q: `CCCC[C@H]1C(=O)N(C)[C@@H](CCCC)C(=O)N[C@@H](CN)C(=O)N[C@H](C(=O)NCC(N)=O)CSCC(=O)N[C@@H](Cc2ccc(O)cc2)C(=O)N(C)[C@@H](C)C(=O)N[C@@H](CC(N)=O)C(=O)N2CCC[C@H]2C(=O)N[C@@H](Cc2c[nH]cn2)C(=O)N[C@@H](CC(C)C)C(=O)N2CCC[C@H]2C(=O)N[C@@H](Cc2c[nH]c3ccccc23)C(=O)N[C@@H](CO)C(=O)N[C@@H](Cc2c[nH]c3ccccc23)C(=O)N1C` [Example 5182] was tested. Which IC50 did it give?
A: 10 to 99.9 nM

Q: For `CCCC[C@H]1C(=O)N(C)[C@@H](CCCC)C(=O)N[C@@H](CC(C)C)C(=O)N[C@H](C(=O)NCC(N)=O)CSCC(=O)N[C@@H](Cc2ccc(O)cc2)C(=O)N(C)[C@@H](C)C(=O)N[C@@H](CC(N)=O)C(=O)N2CCC[C@H]2C(=O)NCC(=O)N[C@@H](CCC(N)=O)C(=O)N2C[C@H](O)C[C@H]2C(=O)N[C@@H](Cc2c[nH]c3ccccc23)C(=O)NCC(=O)N[C@@H](Cc2c[nH]c3ccccc23)C(=O)N1C` [Example 5183] ({CH2CO}-Y[NMeA]NPGQ[Hyp]WGW[NMeNle][NMeNle]LCG-NH2; thioether N-14), which IC50 is on record?
A: 10 to 99.9 nM

Q: `CCCC[C@H]1C(=O)N(C)[C@@H](CCCC)C(=O)N[C@@H](CCC(=O)O)C(=O)N[C@H](C(=O)NCC(N)=O)CSCC(=O)N[C@@H](Cc2ccc(O)cc2)C(=O)N(C)[C@@H](C)C(=O)N[C@@H](CC(=O)O)C(=O)N2CCC[C@H]2C(=O)N[C@@H](CO)C(=O)N[C@@H](CC(C)C)C(=O)N2C[C@H](O)C[C@H]2C(=O)N[C@@H](Cc2c[nH]c3ccccc23)C(=O)N[C@@H](CO)C(=O)N[C@@H](CC2CNc3ccccc32)C(=O)N1C` (stereo partly drawn) [Example 5184] ({CH2CO}-Y[NMeA]DPSL[Hyp]WS[X8][NMeNle][NMeNle]ECG-NH2; thioether N-14) was tested. Which IC50 did it give?
A: 10 to 99.9 nM

Q: Which IC50 does the source give for `CCCC[C@H]1C(=O)N(C)[C@@H](CCCC)C(=O)N[C@@H](CCC(=O)O)C(=O)N[C@H](C(=O)NCC(N)=O)CSCC(=O)N[C@@H](Cc2ccc(O)cc2)C(=O)N(C)[C@@H](C)C(=O)N[C@@H](CC(N)=O)C(=O)N2CCC[C@H]2C(=O)N[C@@H](Cc2cnc[nH]2)C(=O)N[C@@H](CCC(N)=O)C(=O)N2C[C@H](O)C[C@H]2C(=O)N[C@@H](Cc2c[nH]c3ccccc23)C(=O)N[C@@H](CCC(=O)O)C(=O)N[C@@H](Cc2c[nH]c3ccccc23)C(=O)N1C` [Example 5186] ({CH2CO}-Y[NMeA]NPHQ[Hyp]WEW[NMeNle][NMeNle]ECG-NH2; thioether N-14) here?
A: 1 to 9.9 nM
